Measurements published in patent publication US20040067483A1, “Compositions, methods and kits for identying protein-protein interaction disrupting agents” (priority 2003, published 2004).

Target: T1, interaction between TGFR (RI) and FKPB12 (Homo sapiens, UniProt P62942)
T1 construct: expressed in transfected cells; host or cells: 293A cells
Assay: Mammalian reverse two-hybrid system, GFP reporter, stable cell line (pCMV-tetOP-AD-RI-IRES-BD-FKBP12)
Type: cell-based
Details: 293A cells; 1 μg/ml Dox, 48 hrs; FK506 100 nM, AG1478 2.5 μM; FIG. 2
Procedure: Green Fluorescence Protein (GFP). To directly assay the expression of GFP, cells were cultured in 96 or 384 well low fluorescence assay plates with 100 or 50 μl of DMEM medium. Dox and agents were added at concentrations described below. Following 48-hrs of treatment, the medium in each well was replaced with PBS. The intensity of GFP was directly measured at 485 mn excitation and 525 nm emission with a fluorescence multi-well plate reader (CytoFluor II, PerSeptive Biosystems or Wallac Victor V Stacker, Perkin Elmer).
The mammalian reverse two-hybrid system of the present invention was tested with this protein-protein interaction pair to evaluate if the effect of FK506 on disrupting the interaction can be detected. To achieve this, the cytoplasmic domain of the TGFR (RI) was fused with the transcriptional activation domain (AD) of VP16 and FKBP12 was fused with the Gal4 DNA binding domain (BD).
A stable cell line harboring the construct TetR-KRAB, GFP reporter construct, and the construct pCMV-tetOP-AD-RI-IRES-BD-FKBP12 was selected to evaluate the effect of drug molecule FK506 on the interaction between TGFR (RI) and FKPB12. The intensity of GFP expression was monitored following 48 hrs of treatment of the cells with the inducer Dox and the agent FK506.
Expression of the GFP reporter gene was evaluated following the treatment. […]

T1 sequence (P62942 whole entry): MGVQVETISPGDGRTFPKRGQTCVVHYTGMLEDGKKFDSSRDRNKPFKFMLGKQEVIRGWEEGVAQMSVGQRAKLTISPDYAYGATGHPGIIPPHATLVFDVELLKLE

- Dox induced GFP expression (GFP reporter gene): no effect
SMILES: COc1cc2ncnc(Nc3cccc(Cl)c3)c2cc1OC [AG1478]
